From patent publication US7402548B2, “Benzoxazole compounds, process for producing the same and herbicides” (Kyoyu Agri Co., Ltd., priority 2000, dated 2008)

Assays:
[1] = system: barnyard grass; experiment: Herbicidal test for paddy field; format: in vivo, Eschinochloa crusgalli; settings: 500 g/ha, dropwise addition to paddy water at 1.5 leaf stage of barnyard grass; glass house 25° C., 3 weeks; rank 0-5 vs non-treated district; note: key: 0: normal development; 1: Less damaged; 2: Slightly damaged; 3: Moderately damaged; 4: Severely damaged; 5: All killed
Procedure, shortened: (§1)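 Wettable-powder formulations in water with 0.05% surfactant were dripped onto flooded (3 cm) Ube alluvial-soil pots at 500 g/ha, applied at barnyard grass 1.5-leaf stage. Plants were kept in a glasshouse at 25° C. for 3 weeks. Damage was scored 0 (normal) to 5 (all killed) versus untreated plants.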

[2] = system: Cyperus serotinus Rottb.; experiment: Herbicidal test for paddy field; format: in vivo; settings: 500 g/ha, dropwise addition to paddy water at 1.5 leaf stage of barnyard grass; glass house 25° C., 3 weeks; rank 0-5 vs non-treated district; note: key: 0: normal development; 1: Less damaged; 2: Slightly damaged; 3: Moderately damaged; 4: Severely damaged; 5: All killed
Procedure, shortened: as §1

[3] = system: arrowhead; experiment: Herbicidal test for paddy field; format: in vivo, Sagittaria pygmaea; settings: 500 g/ha, dropwise addition to paddy water at 1.5 leaf stage of barnyard grass; glass house 25° C., 3 weeks; rank 0-5 vs non-treated district; note: key: 0: normal development; 1: Less damaged; 2: Slightly damaged; 3: Moderately damaged; 4: Severely damaged; 5: All killed
Procedure, shortened: as §1

[4] = system: corn; experiment: Soil treatment test for upland field; format: in vivo; parameters: key: 0 = normal development, 5 = all killed; settings: 500 g/ha, 3 weeks, glass house 25° C.
Procedure, shortened: (§2)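 Seeds were sown in alluvial soil in pots, and a wettable powder diluted in water with 0.05% surfactant was sprayed evenly on the soil surface at 500 g/ha. Plants were kept in a glass house at about 25° C for 3 weeks, then damage was scored 0–5 against untreated controls.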

[5] = system: solgum; experiment: Soil treatment test for upland field; format: in vivo; parameters: key: 0 = normal development, 5 = all killed; settings: 500 g/ha, 3 weeks, glass house 25° C.
Procedure, shortened: as §2

[6] = system: sugar beat; experiment: Soil treatment test for upland field; format: in vivo; parameters: key: 0 = normal development, 5 = all killed; settings: 500 g/ha, 3 weeks, glass house 25° C.
Procedure, shortened: as §2

[7] = system: wheat; experiment: Soil treatment test for upland field; format: in vivo; parameters: key: 0 = normal development, 5 = all killed; settings: 500 g/ha, 3 weeks, glass house 25° C.
Procedure, shortened: as §2

[8] = system: common Cocklebur (Xanthium strumarium); experiment: Soil treatment test for upland field; format: in vivo; settings: 500 g/ha, 3 weeks, glass house 25° C. Note: key: 0: normal development; 1: Less damaged; 2: Slightly damaged; 3: Moderately damaged; 4: Severely damaged; 5: All killed.
Procedure, shortened: as §2

[9] = system: sicklepod (Cassia obtusifolia); experiment: Soil treatment test for upland field; format: in vivo; settings: 500 g/ha, 3 weeks, glass house 25° C.
Procedure, shortened: as §2

[10] = system: green foxtail; experiment: Soil treatment test for upland field; format: in vivo, Setaria viridis; parameters: key: 0 = normal development, 5 = all killed; settings: 500 g/ha, 3 weeks, glass house 25° C.
Procedure, shortened: as §2

[11] = system: blackgrass; experiment: Soil treatment test for upland field; format: in vivo, Alopecurus aegualis; parameters: key: 0 = normal development, 5 = all killed; settings: 500 g/ha, 3 weeks, glass house 25° C.
Procedure, shortened: as §2

[12] = system: annual bluegrass; experiment: Soil treatment test for upland field; format: in vivo, Poa annua; parameters: key: 0 = normal development, 5 = all killed; settings: 500 g/ha, 3 weeks, glass house 25° C.
Procedure, shortened: as §2

[13] = system: common lambsquarters; experiment: Soil treatment test for upland field; format: in vivo, Chenopodium album; parameters: key: 0 = normal development, 5 = all killed; settings: 500 g/ha, 3 weeks, glass house 25° C.
Procedure, shortened: as §2

[14] = system: livid amaranth; experiment: Soil treatment test for upland field; format: in vivo, Amaranthus lividus; parameters: key: 0 = normal development, 5 = all killed; settings: 500 g/ha, 3 weeks, glass house 25° C.
Procedure, shortened: as §2

[15] = system: velvetleaf; experiment: Soil treatment test for upland field; format: in vivo, Abutilon theophrasti; parameters: key: 0 = normal development, 5 = all killed; settings: 500 g/ha, 3 weeks, glass house 25° C.
Procedure, shortened: as §2

[16] = system: morning glory; experiment: Soil treatment test for upland field; format: in vivo, Ipomoea spps.; parameters: key: 0 = normal development, 5 = all killed; settings: 500 g/ha, 3 weeks, glass house 25° C.
Procedure, shortened: as §2

[17] = system: corn; experiment: Foliar spread test for upland field; format: in vivo; parameters: key: 0 = normal development, 5 = all killed (6 ranks vs. untreated); settings: foliar spray, 500 ppm, 3 weeks, glass house 25° C.
Procedure, shortened: (§3)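 Seeds were sown in volcanic ash soil in Wagner pots and grown about 2 weeks in a glass house at an average 25° C. Wettable-powder formulations diluted to 500 ppm in water with 0.5% surfactant were sprayed uniformly over the plants. After 3 further weeks at 25° C, damage was scored 0 (normal) to 5 (all killed) against untreated plants.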

[18] = system: soybean; experiment: Foliar spread test for upland field; format: in vivo; parameters: key: 0 = normal development, 5 = all killed (6 ranks vs. untreated); settings: foliar spray, 500 ppm, 3 weeks, glass house 25° C.
Procedure, shortened: as §3

[19] = system: wheat; experiment: Foliar spread test for upland field; format: in vivo; parameters: key: 0 = normal development, 5 = all killed (6 ranks vs. untreated); settings: foliar spray, 500 ppm, 3 weeks, glass house 25° C.
Procedure, shortened: as §3

[20] = system: Large crabgrass; experiment: Foliar spread test for upland field; format: in vivo, Digitaria adscendens; parameters: key: 0 = normal development, 5 = all killed (6 ranks vs. untreated); settings: foliar spray, 500 ppm, 3 weeks, glass house 25° C.
Procedure, shortened: as §3

[21] = system: barnyardgrjass; experiment: Foliar spread test for upland field; format: in vivo, Eschinochloa crusgalli; parameters: key: 0 = normal development, 5 = all killed (6 ranks vs. untreated); settings: foliar spray, 500 ppm, 3 weeks, glass house 25° C.
Procedure, shortened: as §3

[22] = system: blackgrass; experiment: Foliar spread test for upland field; format: in vivo, Alopecurus aegualis; parameters: key: 0 = normal development, 5 = all killed (6 ranks vs. untreated); settings: foliar spray, 500 ppm, 3 weeks, glass house 25° C.
Procedure, shortened: as §3

[23] = system: annual bluegrass; experiment: Foliar spread test for upland field; format: in vivo, Poa annua; parameters: key: 0 = normal development, 5 = all killed (6 ranks vs. untreated); settings: foliar spray, 500 ppm, 3 weeks, glass house 25° C.
Procedure, shortened: as §3

[24] = system: common lambsquarters; experiment: Foliar spread test for upland field; format: in vivo, Chenopodium album; parameters: key: 0 = normal development, 5 = all killed (6 ranks vs. untreated); settings: foliar spray, 500 ppm, 3 weeks, glass house 25° C.
Procedure, shortened: as §3

[25] = system: livid amaranth; experiment: Foliar spread test for upland field; format: in vivo, Amaranthus lividus; parameters: key: 0 = normal development, 5 = all killed (6 ranks vs. untreated); settings: foliar spray, 500 ppm, 3 weeks, glass house 25° C.
Procedure, shortened: as §3

[26] = system: velvetleaf; experiment: Foliar spread test for upland field; format: in vivo, Abutilon theophrasti; parameters: key: 0 = normal development, 5 = all killed (6 ranks vs. untreated); settings: foliar spray, 500 ppm, 3 weeks, glass house 25° C.
Procedure, shortened: as §3

SMILES	Effects Barnyardgrass [1]	Effects Cyperus serotinus Rottb. [2]	Effects Arrowhead [3]	Effects Corn [4]	Effects Solgum [5]	Effects Sugar beat [6]	Effects Wheat [7]	Effects Common Cocklebur [8]	Effects Sicklepod [9]	Effects Green foxtail [10]	Effects Blackgrass [11]	Effects Annual bluegrass [12]	Effects Common lambsquarters [13]	Effects Livid amaranth [14]	Effects Velvetleaf [15]	Effects Morning glory [16]	Effects Corn [17]	Effects Soybean [18]	Effects Wheat [19]	Effects Large crabgrass [20]	other results
FC(F)(F)c1cccc(Oc2cccc(-c3nc4cc(Cl)ccc4o3)n2)c1 [I-a-3, 6-(5-chlorobenzoxazol-2-yl)-2-(3-trifluoromethylphenoxy)pyridine]	3	0	0	1	1	5	1	2	5	5	4	5	5	5	3	3	1	3	1	2	Effects Barnyardgrass [21]: 1; Effects Blackgrass [22]: 1; Effects Annual bluegrass [23]: 4; Effects Common lambsquarters [24]: 5; Effects Livid amaranth [25]: 5; Effects Velvetleaf [26]: 4
Fc1ccc2nc(-c3cccc(Oc4cccc(C(F)(F)F)c4)n3)oc2c1 [I-a-6, 6-(6-fluorobenzoxazol-2-yl)-2-(3-trifluoromethylphenoxy)pyridine]	4	2	0	0	0	5	1	0	1	5	5	5	5	5	2	5	3	5	3	5	Effects Barnyardgrass [21]: 5; Effects Blackgrass [22]: 5; Effects Annual bluegrass [23]: 5; Effects Common lambsquarters [24]: 5; Effects Livid amaranth [25]: 5; Effects Velvetleaf [26]: 5
Fc1ccc2nc(-c3cccc(Oc4ccc(F)c(C(F)(F)F)c4)n3)oc2c1 [I-a-7]	1	0	0	0	0	5	0	0	3	5	4	5	5	5	0	1	1	3	2	3	Effects Barnyardgrass [21]: 1; Effects Blackgrass [22]: 1; Effects Annual bluegrass [23]: 3; Effects Common lambsquarters [24]: 4; Effects Livid amaranth [25]: 5; Effects Velvetleaf [26]: 3
